Source: ChEMBL document CHEMBL2203174, “SAR Development of Lysine-Based Irreversible Inhibitors of Transglutaminase 2 for Huntington's Disease” (ACS Med Chem Lett, 2012)

Key:
[1] = biological target: T1, Protein-glutamine gamma-glutamyltransferase (Homo sapiens, UniProt P21980); experiment: Irreversible inhibition of transglutaminase 2
T1 sequence (P21980 whole entry): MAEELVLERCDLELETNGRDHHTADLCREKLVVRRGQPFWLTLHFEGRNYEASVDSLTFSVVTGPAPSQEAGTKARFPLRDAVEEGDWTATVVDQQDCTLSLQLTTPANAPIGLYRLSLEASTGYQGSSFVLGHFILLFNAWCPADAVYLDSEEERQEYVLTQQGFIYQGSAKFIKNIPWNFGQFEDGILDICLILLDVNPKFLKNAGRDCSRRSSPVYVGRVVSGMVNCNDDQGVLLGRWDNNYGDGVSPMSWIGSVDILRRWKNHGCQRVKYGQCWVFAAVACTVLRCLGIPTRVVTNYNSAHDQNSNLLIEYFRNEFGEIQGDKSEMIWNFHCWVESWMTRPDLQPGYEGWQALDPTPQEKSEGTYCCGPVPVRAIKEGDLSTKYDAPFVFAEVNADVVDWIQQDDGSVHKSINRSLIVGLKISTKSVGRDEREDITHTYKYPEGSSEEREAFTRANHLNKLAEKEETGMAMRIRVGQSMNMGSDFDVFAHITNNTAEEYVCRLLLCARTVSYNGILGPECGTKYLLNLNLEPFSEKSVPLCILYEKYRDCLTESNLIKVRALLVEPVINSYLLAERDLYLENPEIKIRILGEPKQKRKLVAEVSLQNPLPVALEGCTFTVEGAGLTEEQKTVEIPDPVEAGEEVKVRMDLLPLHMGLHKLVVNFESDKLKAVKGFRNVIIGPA

[2] = Ratio of IC50 for mouse transglutaminase 2 to IC50 for human transglutaminase 2
[3] = biological target: T2, Protein-glutamine gamma-glutamyltransferase K (Homo sapiens, UniProt P22735); experiment: Inhibition of transglutaminase 1
T2 sequence (P22735 whole entry): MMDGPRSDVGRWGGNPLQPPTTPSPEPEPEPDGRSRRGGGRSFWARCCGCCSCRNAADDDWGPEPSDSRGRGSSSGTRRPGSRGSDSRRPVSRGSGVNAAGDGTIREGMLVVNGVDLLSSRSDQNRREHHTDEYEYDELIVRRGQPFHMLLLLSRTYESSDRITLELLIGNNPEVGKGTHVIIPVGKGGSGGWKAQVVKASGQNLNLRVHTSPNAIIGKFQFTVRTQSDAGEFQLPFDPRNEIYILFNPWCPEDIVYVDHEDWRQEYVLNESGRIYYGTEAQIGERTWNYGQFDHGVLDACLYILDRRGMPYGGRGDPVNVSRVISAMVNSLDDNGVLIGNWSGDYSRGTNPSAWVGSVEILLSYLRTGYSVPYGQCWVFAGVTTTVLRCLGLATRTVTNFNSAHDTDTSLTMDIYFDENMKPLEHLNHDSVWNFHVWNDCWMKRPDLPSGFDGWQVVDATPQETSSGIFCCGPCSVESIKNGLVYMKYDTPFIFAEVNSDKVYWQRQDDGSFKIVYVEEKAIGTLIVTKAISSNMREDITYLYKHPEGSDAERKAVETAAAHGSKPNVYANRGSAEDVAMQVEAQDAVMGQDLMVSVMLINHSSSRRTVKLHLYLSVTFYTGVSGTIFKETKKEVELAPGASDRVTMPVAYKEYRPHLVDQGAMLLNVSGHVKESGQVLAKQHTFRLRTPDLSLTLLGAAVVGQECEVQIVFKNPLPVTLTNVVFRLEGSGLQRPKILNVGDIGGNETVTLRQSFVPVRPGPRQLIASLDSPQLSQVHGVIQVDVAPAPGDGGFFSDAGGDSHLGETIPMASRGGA

[4] = biological target: T3, Coagulation factor XIII A chain (Homo sapiens, UniProt P00488); experiment: Inhibition of coagulation factor 13a
T3 sequence (P00488 whole entry): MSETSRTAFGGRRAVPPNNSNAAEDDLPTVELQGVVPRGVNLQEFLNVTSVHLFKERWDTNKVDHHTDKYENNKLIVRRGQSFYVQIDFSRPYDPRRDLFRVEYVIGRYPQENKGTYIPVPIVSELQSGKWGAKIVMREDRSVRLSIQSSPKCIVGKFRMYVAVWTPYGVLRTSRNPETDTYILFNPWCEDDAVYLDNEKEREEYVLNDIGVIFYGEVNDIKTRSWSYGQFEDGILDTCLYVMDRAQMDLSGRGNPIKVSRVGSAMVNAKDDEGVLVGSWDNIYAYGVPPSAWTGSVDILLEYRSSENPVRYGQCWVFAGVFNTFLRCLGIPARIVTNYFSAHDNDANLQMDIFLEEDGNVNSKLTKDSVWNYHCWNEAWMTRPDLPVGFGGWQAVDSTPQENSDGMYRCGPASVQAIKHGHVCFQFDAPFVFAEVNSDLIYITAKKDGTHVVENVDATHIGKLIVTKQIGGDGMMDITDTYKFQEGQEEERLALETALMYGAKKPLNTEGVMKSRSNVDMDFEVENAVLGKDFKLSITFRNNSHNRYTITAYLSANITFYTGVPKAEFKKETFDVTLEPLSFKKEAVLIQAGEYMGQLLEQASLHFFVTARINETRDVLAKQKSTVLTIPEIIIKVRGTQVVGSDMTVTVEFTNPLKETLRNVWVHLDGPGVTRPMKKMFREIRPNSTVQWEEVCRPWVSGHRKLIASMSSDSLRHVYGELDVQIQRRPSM

[5] = biological target: T4, Protein-glutamine gamma-glutamyltransferase E (Homo sapiens, UniProt Q08188); experiment: Inhibition of transglutaminase 3
T4 sequence (Q08188 whole entry): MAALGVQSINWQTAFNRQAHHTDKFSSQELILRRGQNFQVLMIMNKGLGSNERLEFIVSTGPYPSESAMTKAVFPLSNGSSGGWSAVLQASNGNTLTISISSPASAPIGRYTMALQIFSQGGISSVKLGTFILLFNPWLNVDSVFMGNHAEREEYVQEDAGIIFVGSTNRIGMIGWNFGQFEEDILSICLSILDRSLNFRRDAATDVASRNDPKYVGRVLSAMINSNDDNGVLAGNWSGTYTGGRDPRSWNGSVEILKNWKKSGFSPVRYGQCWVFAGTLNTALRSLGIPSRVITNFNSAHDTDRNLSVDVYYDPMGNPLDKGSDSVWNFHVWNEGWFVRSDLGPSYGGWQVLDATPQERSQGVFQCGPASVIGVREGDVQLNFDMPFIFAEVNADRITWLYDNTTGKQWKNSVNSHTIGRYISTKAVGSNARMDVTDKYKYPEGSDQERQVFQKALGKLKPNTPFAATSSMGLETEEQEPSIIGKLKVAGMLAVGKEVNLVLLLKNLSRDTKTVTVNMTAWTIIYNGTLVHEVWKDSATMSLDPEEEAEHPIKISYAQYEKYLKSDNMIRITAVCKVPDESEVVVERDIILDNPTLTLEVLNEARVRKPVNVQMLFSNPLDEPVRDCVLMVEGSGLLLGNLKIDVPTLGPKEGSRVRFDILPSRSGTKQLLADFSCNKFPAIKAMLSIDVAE

Row | SMILES | IC50 [1] [nM] | further results
1 | C=CC(=O)NCCCC[C@H](NC(=O)OCc1ccccc1)C(=O)N1CCC(F)(F)CC1 | 660 | 
2 | C=CC(=O)NCCCC[C@H](NC(=O)OCc1ccccc1)C(=O)N1Cc2ccccc2C1 | 240 | 
3 | C=CC(=O)NCCCC[C@H](NC(=O)OC(C)(C)C)C(=O)N1CCN(c2cccc(C)n2)CC1 | 850 | 
4 | C=CC(=O)NCCCC[C@H](NC(=O)OCc1ccccc1)C(=O)N1CCN(c2ncccc2C(F)(F)F)CC1 | 160 | Ratio IC50 [2]: 2
5 | C=CC(=O)NCCCC[C@H](NC(=O)OCc1ccccc1)C(=O)N1CCN(C)CC1 | 610 | Ratio IC50 [2]: 2
6 | C=CC(=O)NCCCC[C@H](NC(=O)OCc1ccccc1)C(=O)N1CCN(c2cc(Cl)ccc2OC)CC1 | 78 | Ratio IC50 [2]: 2
7 | C=CC(=O)NCCCC[C@H](NC(=O)OCc1ccccc1)C(=O)N1CCCC1 | 580 | 
8 | C=CC(=O)NCCCC[C@H](NC(=O)OCc1ccccc1)C(=O)N1CCOCC1 | 730 | 
9 | C=CC(=O)NCCCC[C@H](NC(=O)OCc1ccccc1)C(=O)N1CCN(c2cccc(C)n2)CC1 | 55 | Ratio IC50 [2]: 2
10 | C=CC(=O)NCCCC[C@H](NC(=O)OCc1ccccc1)C(=O)N1CCN(c2ccccn2)CC1 | 260 | Ratio IC50 [2]: 2
11 | C=CC(=O)NCCC1C[C@@H](C(=O)N2CCN(c3cccc(C)n3)CC2)N(C(=O)OC(C)(C)C)C1 (mixture of isomers) | 1800 | 
12 | C=CC(=O)NCCCC[C@@H](CO)NC(=O)OCc1ccccc1 | 5400 | 
13 | C=CC(=O)NCCCC[C@H](NC(=O)c1ccc2ccccc2c1)C(=O)N1CCN(c2cccc(C)n2)CC1 | 1600 | 
14 | C=CC(=O)NCCCC[C@H](NC(=O)OCc1ccccc1)C(=O)N1CCN(c2ccc3ccccc3c2)CC1 | 230 | Ratio IC50 [2]: 2
15 | C=CC(=O)NCCCC[C@H](NC(=O)c1ccccc1)C(=O)N1CCN(c2cccc(C)n2)CC1 | 190 | 
16 | C=CC(=O)NCCCCCNC(=O)OCc1ccccc1 | 7600 | 
17 | C=CC(=O)NCCCC[C@H](NC(C)=O)C(=O)N1CCN(c2cccc(C)n2)CC1 | 190 | 
18 | C=CC(=O)NCCCC[C@H](NC(=O)OCc1ccccc1)C(=O)N1CCN(c2ncccc2C)CC1 | 170 | Ratio IC50 [2]: 2
19 | C=CC(=O)Nc1ccc(C[C@H](NC(=O)OCc2ccccc2)C(=O)O)cc1 | > 80000 | 
20 | C=CC(=O)NCCCC[C@H](NC(=O)OCc1ccccc1)C(=O)N1CCCCCC1 | 590 | 
21 | C=CC(=O)NCCCC[C@H](NC(=O)OCc1ccccc1)C(=O)N1CCN(c2ccc(C(F)(F)F)cn2)CC1 | 110 | Ratio IC50 [2]: 2
22 | C=CC(=O)N1CCC(C[C@H](NC(=O)OC(C)(C)C)C(=O)O)CC1 | > 80000 | 
23 | C=CC(=O)NCCCC[C@H](NC(=O)OCc1ccccc1)C(=O)N1CCC(c2ccccc2)CC1 | 54 | IC50 [3]: 9300 nM; IC50 [4]: 21000 nM; IC50 [5]: > 80000 nM
24 | C=CC(=O)NCCCC[C@H](NC(=O)OCc1ccccc1)C(=O)N1CCCCC1 | 1200 | 

Continued, in another order:

Row | IC50 [1] [nM] | SMILES | further results
25 | 9100 | C=CC(=O)NCCCC[C@H](NC(=O)OCc1ccc2ccccc2c1)C(=O)O | 
26 | 10000 | C=CC(=O)NCCCC[C@H](NC(=O)OCc1c(F)cccc1F)C(=O)O | 
27 | 62000 | C=CC(=O)NCCCC[C@H](NC(=O)OCc1ccc([N+](=O)[O-])cc1)C(=O)O | 
28 | 2700 | C=CC(=O)NCCCC[C@H](NC(=O)OCc1ccccc1)C(=O)O | 
29 | 21000 | C=CC(=O)NCCCC[C@H](NC(=O)OCc1ccc(C(C)(C)C)cc1)C(=O)O | 
30 | 1100 | C=CC(=O)NCCCC[C@H](NC(=O)OCc1ccccc1)C(=O)N(C)C | 
31 | 5900 | C=CC(=O)NCCCC[C@H](NC(=O)OCc1ccc(CCCC)cc1)C(=O)O | 
32 | 7900 | C=CC(=O)NCCCC[C@H](NC(=O)OCc1ccc(F)cc1)C(=O)O | 
33 | 10000 | C=CC(=O)NCCCC[C@H](NC(=O)OCc1cccc(C(F)(F)F)c1)C(=O)O | 
34 | > 80000 | C=CC(=O)NCCCC[C@H](NC(=O)OC)C(=O)O | 
35 | 3500 | C=CC(=O)NCCCC[C@H](NC(=O)OCc1ccccc1C(F)(F)F)C(=O)O | 
36 | 1900 | C=CC(=O)NCCCC[C@H](NC(=O)OCc1ccccc1Cl)C(=O)O | 
37 | 2500 | C=CC(=O)NCCCC[C@H](NC(=O)OCc1ccccc1)C(=O)N1CCC1 | 
38 | 1400 | C=CC(=O)NCCCC[C@H](NC(=O)OCc1ccccc1)C(=O)N(CC)CC | 
39 | 33000 | C=CC(=O)NCCCC[C@H](NC(=O)OCc1ccc(C(F)(F)F)cc1)C(=O)O | 
40 | 14000 | C=CC(=O)NCCCC[C@H](NC(=O)OCc1cccc2ccccc12)C(=O)O | 
41 | 14000 | C=CC(=O)NCCCC[C@H](NC(=O)OCc1ccc(C)cc1)C(=O)O | 
